Biological target: Beta-secretase 1 (Homo sapiens, UniProt P56817)
Test: Biochemical Assay
Conditions: pH 4.5; 37 °C
Procedure: Briefly, the assay was carried out by incubation of the substrate peptide (5 μM), BACE1 enzyme (550 ng/mL) that was expressed and purified from insect expression system and varied concentrations of compounds at pH 4.5. After 1 h incubation at 37°C, stop buffer (3 M sodium acetate) was introduced into the reaction mixture to stop the reaction. Finally, the fluorescence intensity was measured on a TECAN GENios reader (Tecan) at room temperature with excitation at 420 nm and emission at 530 nm.

Beta-secretase 1, sequence (P56817 whole entry): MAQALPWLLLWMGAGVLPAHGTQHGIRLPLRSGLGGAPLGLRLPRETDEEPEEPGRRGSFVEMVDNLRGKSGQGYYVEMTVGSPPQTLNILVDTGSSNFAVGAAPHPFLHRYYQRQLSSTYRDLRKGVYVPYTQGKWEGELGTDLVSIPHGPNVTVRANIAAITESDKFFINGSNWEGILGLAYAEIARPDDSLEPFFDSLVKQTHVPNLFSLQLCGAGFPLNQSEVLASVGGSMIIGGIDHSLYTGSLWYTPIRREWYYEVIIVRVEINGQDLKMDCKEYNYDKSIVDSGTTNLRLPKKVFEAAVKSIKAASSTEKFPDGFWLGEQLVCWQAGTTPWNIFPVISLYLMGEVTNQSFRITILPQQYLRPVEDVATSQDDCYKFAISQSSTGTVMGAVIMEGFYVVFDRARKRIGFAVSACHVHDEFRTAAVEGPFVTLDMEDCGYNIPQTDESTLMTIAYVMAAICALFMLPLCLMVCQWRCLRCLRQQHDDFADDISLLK

Point of comparison: `O=C(/C=C/c1ccccc1O)c1cccc(O)c1O` [(E)-1-(2,3-dihydroxyphenyl)-3-(2-hydroxyphenyl)-2-propen-1-one (12)], IC50 21.8 µM. Against it:
- O=C(/C=C/c1ccccc1O)c1ccccc1O — higher, > 60 µM
- O=C(/C=C/c1ccccc1O)c1cc(O)ccc1O — 1.9-fold higher, 41.8 µM
- C=CCOc1ccccc1/C=C/C(=O)c1ccc(O)cc1O — higher, > 60 µM
- O=C(/C=C/c1ccccc1Cl)c1ccc(O)cc1O — 1.9-fold lower, 11.4 µM
- O=C(/C=C/c1ccccc1O)c1ccc(O)cc1O [2,2'',4''-Trihydroxychalcone] — 8.9-fold lower, 2.45 µM
- O=C(/C=C/c1ccc(O)cc1O)c1ccc(O)cc1O [2,2',4,4'-tetrahydroxychalcone] — 35-fold lower, 0.62 µM
- O=C(/C=C/c1cccc(O)c1O)c1ccc(O)cc1O [(E)-1-(2,4-dihydroxyphenyl)-3-(2,3-dihydroxyphenyl)-2-propen-1-one (17)] — 81-fold lower, 0.27 µM
- O=C(/C=C/c1cc(O)ccc1O)c1ccc(O)cc1O [(E)-1-(2,4-dihydroxyphenyl)-3-(2,5-dihydroxyphenyl)-2-propen-1-one (19)] — 11-fold lower, 1.94 µM
- O=C(/C=C/c1c(O)cccc1O)c1ccc(O)cc1O [(E)-1-(2,4-dihydroxyphenyl)-3-(2,6-dihydroxyphenyl)-2-propen-1-one (20)] — 13-fold lower, 1.71 µM
- COc1ccccc1/C=C/C(=O)c1ccc(O)cc1O [(E)-1-(2,4-dihydroxyphenyl)-3-(2-methoxyphenyl)-2-propen-1-one (4)] — 8.3-fold lower, 2.63 µM
- O=C(/C=C/c1ccccc1[N+](=O)[O-])c1ccc(O)cc1O [(E)-1-(2,4-dihydroxyphenyl)-3-(2-nitrophenyl)-2-propen-1-one (7)] — higher, > 60 µM
- O=C(/C=C/c1cc(O)cc(O)c1)c1ccc(O)cc1O [(E)-1-(2,4-dihydroxyphenyl)-3-(3,5-dihydroxyphenyl)-2-propen-1-one (22)] — 10-fold lower, 2.08 µM
- O=C(/C=C/c1ccccc1O)c1c(O)cccc1O [(E)-1-(2,6-dihydroxyphenyl)-3-(2-hydroxyphenyl)-2-propen-1-one (14)] — within 1.5-fold, 15.6 µM
- O=C(/C=C/c1ccccc1O)c1ccc(O)c(O)c1 [(E)-1-(3,4-dihydroxyphenyl)-3-(2-hydroxyphenyl)-2-propen-1-one (15)] — 1.8-fold lower, 11.8 µM
- O=C(/C=C/c1ccccc1O)c1cc(O)cc(O)c1 [(E)-1-(3,5-dihydroxyphenyl)-3-(2-hydroxyphenyl)-2-propen-1-one (16)] — within 1.5-fold, 19.4 µM
- O=C(/C=C/c1ccccc1O)c1cccc(O)c1 [(E)-1-(3-hydroxyphenyl)-3-(2-hydroxyphenyl)-2-propen-1-one (10)] — within 1.5-fold, 30.4 µM
- O=C(/C=C/c1ccccc1O)c1ccc(O)cc1 [(E)-1-(4-hydroxyphenyl)-3-(2-hydroxyphenyl)-2-propen-1-one (11)] — 2.7-fold higher, 58.1 µM
- O=C(/C=C/c1cccc(O)c1)c1ccc(O)cc1O [(E)-3,2'',4''-Trihydroxychalcone] — 2.7-fold lower, 8.03 µM
- O=C(/C=C/c1ccc(O)c(O)c1)c1ccc(O)cc1O [(E)-3-(3,4-Dihydroxy-phenyl)-1-(2,4-dihydroxy-phenyl)-propenone] — 9.2-fold lower, 2.37 µM
- O=C(/C=C/c1ccccc1O)c1ccccc1 [Chalcone, 1] — higher, > 60 µM

— BindingDB's records for doi:10.3109/14756366.2010.543420 (Shanghai Institute of Material Medica, Chinese Academy of …, 2011)
